The source made the active and inactive calls. The calls are words filed in the database; no cut-off is given here.

This note sets out measurements from ChEMBL document CHEMBL5712891, “Inhibition of BET bromodomain-dependent XIAP and FLIP expression sensitizes KRAS-mutated NSCLC to pro-apoptotic agents” (Cell Death Dis, 2016).

Experiment [1] has as its system DV-90. The experiment can be described thus: Induction of cell cycle arrest in human DV-90 cells assessed as accumulation of cells at G0/G1 phase at 0.1 uM for 24 hrs by Click-iT EdU Alexa Fluor 647 flow cytometric assay kit analysis (reference value: 44%). The format is functional. For orientation: A flow cytometer gives signals particle by particle.
In experiment [2] the test system is DV-90. The experiment can be described thus: Downregulation of […] gene in human DV-90 cells after 24 hrs by microarray profiling analysis. Type of experiment: functional, cell-based.
Experiment [3] concerns NCI-H2030. The experiment can be described thus: Downregulation of FLIP mRNA expression level in human NCI-H2030 cells at 0.1 to 1 uM for 24 hrs by qRT-PCR analysis. Type of experiment: functional, cell-based. Particulars: dose 0.1-1 µM.
Experiment [4] concerns LCLC-97TM1. The experiment can be described thus: Downregulation of c-MYC protein expression level in human LCLC-97TM1 cells at 1 uM for 24 hrs by […] analysis. Type of experiment: functional, cell-based. In general terms: In qPCR the cycle at which signal appears reflects the starting amount.
In experiment [5] the test system is A549. The experiment can be described thus: Downregulation of c-MYC protein level in human A549 cells at 100 to 5000 nM upto 24 hrs by Western blot analysis. The format is functional, cell-based. Particulars: dose 100-5000 nM. A general note: A western blot detects proteins with antibodies after separation by electrophoresis.
Experiment [6] has as its system NCI-H358. The experiment can be described thus: Downregulation of c-MYC mRNA expression level in human NCI-H358 cells at 0.1 to 1 uM for 24 hrs by qRT-PCR analysis. Type of experiment: functional, cell-based. Particulars: dose 0.1-1 µM.
Experiment [7] concerns NCI-H1373. The experiment can be described thus: Induction of TRAIL dependent apoptosis in human NCI-H1373 cells assessed as necrotic cells at 1 uM in presence of […] by annexin V-PI staining based flow cytometric analysis (reference value: 3.6%). The format is functional.
The subject of experiment [8] is DV-90. The experiment can be described thus: Downregulation of C-MYC mRNA expression level in human DV-90 cells at 0.1 to 1 uM for 24 hrs by qRT-PCR analysis. Type of experiment: functional, cell-based. Particulars: dose 0.1-1 µM.
Experiment [9] concerns NCI-H358. The experiment can be described thus: Downregulation of FLIP mRNA expression level in human NCI-H358 cells at 0.1 to 1 uM for 24 hrs by qRT-PCR analysis. The format is functional, cell-based. The following applies: dose 0.1-1 µM.
The subject of experiment [10] is A549. The experiment can be described thus: Induction of apoptosis in human A549 cells assessed as viable cells at 0.5 uM for 24 hrs by annexin V-PI staining based flow cytometric analysis (reference value: 96%). Type of experiment: functional. Particulars: read-out: Activity.
Experiment [11] has as its system NCI-H1373. The experiment can be described thus: Induction of apoptosis in human NCI-H1373 cells assessed as late apoptotic cells at 2.5 uM for 24 hrs by annexin V-PI staining based flow cytometric analysis (reference value: 16.2%). The format is functional.
For experiment [12], the system named is NCI-H1373. The experiment can be described thus: Induction of cell cycle arrest in human NCI-H1373 cells assessed as accumulation of cells at S phase at 0.5 uM for 24 hrs by Click-iT EdU Alexa Fluor 647 flow cytometric assay kit analysis (reference value: 45%). The format is functional.
Experiment [13] concerns A549. The experiment can be described thus: Induction of apoptosis in human A549 cells assessed as early apoptotic cells at 2.5 uM for 24 hrs by annexin V-PI staining based flow cytometric analysis (reference value: 0.4%). Type of experiment: functional.
Experiment [14] has as its system NCI-H460. The experiment can be described thus: Downregulation of c-MYC protein expression level in human NCI-H460 cells at 1 uM for 24 hrs by […] analysis. The format is functional, cell-based.
Experiment [15] concerns NCI-H460. The experiment can be described thus: Downregulation of c-MYC mRNA expression level in human NCI-H460 cells at 0.1 to 1 uM for 24 hrs by qRT-PCR analysis. The format is functional, cell-based. Particulars: dose 0.1-1 µM.
The test system of experiment [16] is DV-90. The experiment can be described thus: Induction of apoptosis in human DV-90 cells assessed as viable cells at 2.5 uM for 24 hrs by annexin V-PI staining based flow cytometric analysis (reference value: 81.5%). Type of experiment: functional. Particulars: read-out: Activity.
Experiment [17] has as its system A549. The experiment can be described thus: Downregulation of FLIP mRNA expression level in human A549 cells at 0.1 to 1 uM for 24 hrs by qRT-PCR analysis. The format is functional, cell-based. Particulars: dose 0.1-1 µM.
The test system of experiment [18] is NCI-H358. The experiment can be described thus: Downregulation of XIAP mRNA expression level in human NCI-H358 cells at 0.1 to 1 uM for 24 hrs by qRT-PCR analysis. Type of experiment: functional, cell-based. The following applies: dose 0.1-1 µM.
Experiment [19] deals with NCI-H2030. The experiment can be described thus: Downregulation of c-MYC protein expression level in human NCI-H2030 cells at 1 uM for 24 hrs by […] analysis. Type of experiment: functional, cell-based.
Experiment [20] has as its system LCLC-97TM1. The experiment can be described thus: Downregulation of XIAP protein expression level in human LCLC-97TM1 cells at 1 uM for 24 hrs by […] analysis. The format is functional, cell-based.
For experiment [21], the system named is NCI-H460. The experiment can be described thus: Downregulation of FLIP mRNA expression level in human NCI-H460 cells at 0.1 to 1 uM for 24 hrs by qRT-PCR analysis. Particulars: dose 0.1-1 µM. Type of experiment: functional, cell-based.
A further experiment concerns NCI-H441. The experiment can be described thus: Downregulation of c-MYC protein expression level in human NCI-H441 cells at 1 uM for 24 hrs by […] analysis. The format is functional, cell-based.
Experiment [22] has as its system A549. The experiment can be described thus: Induction of apoptosis in human A549 cells assessed as late apoptotic cells at 0.5 uM for 24 hrs by annexin V-PI staining based flow cytometric analysis (reference value: 2.3%). The format is functional.
Experiment [23] concerns A549. The experiment can be described thus: Induction of cell cycle arrest in human A549 cells assessed as accumulation of cells at G2/M phase at 0.25 uM for 24 hrs by Click-iT EdU Alexa Fluor 647 flow cytometric assay kit analysis (reference value: 3%). The format is functional.
Experiment [24] has as its system A549. The experiment can be described thus: Induction of apoptosis in human A549 cells assessed as viable cells at 1 uM by annexin V-PI based flow cytometric analysis (reference value: 95.7%). The following applies: read-out: Activity. Type of experiment: functional.
Experiment [25] deals with NCI-H1373. The experiment can be described thus: Induction of TRAIL dependent apoptosis in human NCI-H1373 cells assessed as early apoptotic cells at 1 uM in presence of […] by annexin V-PI staining based flow cytometric analysis (reference value: 0.5%). The format is functional.
The test system of another experiment is NCI-H1792. The experiment can be described thus: Downregulation of c-MYC protein expression level in human NCI-H1792 cells at 1 uM for 24 hrs by […] analysis. The format is functional, cell-based.
The test system of experiment [26] is NCI-H460. The experiment can be described thus: Induction of apoptosis in human NCI-H460 cells assessed as early apoptotic cells at 2.5 uM for 24 hrs by annexin V-PI staining based flow cytometric analysis (reference value: 0.3%). Type of experiment: functional.
Experiment [27] deals with NCI-H460. The experiment can be described thus: Induction of apoptosis in human NCI-H460 cells assessed as necrotic cells at 0.5 uM for 24 hrs by annexin V-PI staining based flow cytometric analysis (reference value: 3.2%). The format is functional.
For experiment [28], the system named is DV-90. The experiment can be described thus: Induction of apoptosis in human DV-90 cells assessed as early apoptotic cells at 0.5 uM for 48 hrs by annexin V-PI staining based flow cytometric analysis (reference value: 1.0%).
Experiment [29] concerns DV-90. The experiment can be described thus: Induction of apoptosis in human DV-90 cells assessed as necrotic cells at 0.5 uM for 48 hrs by annexin V-PI staining based flow cytometric analysis (reference value: 8.4%).
Experiment [30] concerns A549. The experiment can be described thus: Induction of apoptosis in human A549 cells assessed as late apoptotic cells at 0.5 uM for 24 hrs by annexin V-PI staining based flow cytometric analysis (reference value: 1.2%). Type of experiment: functional.
In experiment [31] the test system is NCI-H1373. The experiment can be described thus: Induction of cell cycle arrest in human NCI-H1373 cells assessed as accumulation of cells at G0/G1 phase at 0.1 uM for 24 hrs by Click-iT EdU Alexa Fluor 647 flow cytometric assay kit analysis (reference value: 48%). The format is functional.
Experiment [32] has as its system NCI-H460. The experiment can be described thus: Induction of cell cycle arrest in human NCI-H460 cells assessed as accumulation of cells at S phase at 0.5 uM for 24 hrs by Click-iT EdU Alexa Fluor 647 flow cytometric assay kit analysis (reference value: 54%). The format is functional.

Consider `Cc1sc2c(c1C)C(c1ccc(Cl)cc1)=N[C@@H](CC(=O)OC(C)(C)C)c1nnc(C)n1-2`, for which the Activity in the experiment on DV-90 [1] was 41%; in the experiment on NCI-H1373 [7], 40.2%; in the experiment on NCI-H1373 [11], 21.9%; in the experiment on NCI-H1373 [12], 12%; with A549 [13] it was 0.2%; in the experiment on A549 [22], 1.5%. Further, the Activity in the experiment with A549 [23] turned out to be 3%; in the experiment with NCI-H1373 [25], 6.1%. In addition, the outcome with DV-90 [2], with NCI-H2030 [3], in the experiment with LCLC-97TM1 [4], in the experiment with NCI-H358 [6], with DV-90 [8] and in the experiment with NCI-H358 [9] was Active. For the same compound, the outcome in the experiment on NCI-H460 [14], with NCI-H460 [15], in the experiment with A549 [17], in the experiment on NCI-H358 [18], with NCI-H2030 [19] and in the experiment on LCLC-97TM1 [20] was Active. Also, the outcome with NCI-H460 [21], in the experiment on NCI-H441 and with NCI-H1792 was Active. Also, the result with A549 [5] was inactive. For the same compound, in the experiment with A549 [10], the viability at 0.5 µM stood at 97.2%. Also, in the experiment with DV-90 [16], the viability at 2.5 µM stood at 50.7%. For the same compound, the viability at 1 µM with A549 [24] came to 98%.
Consider `Cc1sc2c(c1C)C(c1ccc(Cl)cc1)=N[C@@H](CC(=O)Nc1ccc(O)cc1)c1nnc(C)n1-2` [BIRABRESIB], for which the Activity is 0.6% with NCI-H460 [26]; 4.7% in the experiment with NCI-H460 [27]; 2.8% in the experiment with DV-90 [28]; 27.6% in the experiment on DV-90 [29]; 1.1% with A549 [30].
In the case of `CCNC(=O)C[C@@H]1N=C(c2ccc(Cl)cc2)c2cc(OC)ccc2-n2c(C)nnc21` [MOLIBRESIB], the Activity is listed as 47% with NCI-H1373 [31] and 46% in the experiment on NCI-H460 [32].
